From PubChem BioAssay AID248 (DTP/NCI, 2004)
Inconclusive results and toxic doses are left out.

Test system: L1210 leukemia ip in BDF1 mice, survival T/C
Assay: NCI In Vivo Anticancer Drug Screen. Data for tumor model L1210 Leukemia (intraperitoneal) in B6D2F1 (BDF1) mice
Details: endpoint: mean survival time, higher = longer survival
How it was run: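 Antitumor effect is assessed in tumor-bearing animals. Survival in the compound arm is compared with a vehicle-dosed control arm and expressed as their quotient.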

[1] = dose: 100.0 mg/kg/injection, schedule: Q01DX001 (ip), vehicle: saline
[2] = dose: 200.0 mg/kg/injection, schedule: Q01DX001 (ip), vehicle: saline
[3] = dose: 400.0 mg/kg/injection, schedule: Q01DX001 (ip), vehicle: saline
[4] = dose: 100.0 mg/kg/injection, schedule: Q04DX003 (ip), vehicle: saline with Tween-80
[5] = dose: 50.0 mg/kg/injection, schedule: Q01DX009 (ip), vehicle: Klucel (hydroxypropylcellulose) (HPC)
[6] = dose: 50.0 mg/kg/injection, schedule: Q01DX009 (ip), vehicle: saline
[7] = dose: 100.0 mg/kg/injection, schedule: Q01DX009 (ip), vehicle: saline
[8] = dose: 100.0 mg/kg/injection, schedule: Q04DX003 (ip), vehicle: saline
[9] = dose: 200.0 mg/kg/injection, schedule: Q01DX009 (ip), vehicle: saline
[10] = dose: 200.0 mg/kg/injection, schedule: Q04DX003 (ip), vehicle: saline
[11] = dose: 400.0 mg/kg/injection, schedule: Q01DX009 (ip), vehicle: saline
[12] = dose: 400.0 mg/kg/injection, schedule: Q04DX003 (ip), vehicle: saline
[13] = dose: 100.0 mg/kg/injection, schedule: Q01DX009 (ip), vehicle: Klucel (hydroxypropylcellulose) (HPC)
[14] = dose: 100.0 mg/kg/injection, schedule: Q04DX003 (ip), vehicle: Klucel (hydroxypropylcellulose) (HPC)
[15] = dose: 200.0 mg/kg/injection, schedule: Q04DX003 (ip), vehicle: Klucel (hydroxypropylcellulose) (HPC)
[16] = dose: 50.0 mg/kg/injection, schedule: Q01DX001 (ip), vehicle: carboxymethylcellulose (CMC)
[17] = dose: 100.0 mg/kg/injection, schedule: Q01DX001 (ip), vehicle: carboxymethylcellulose (CMC)
[18] = dose: 200.0 mg/kg/injection, schedule: Q01DX001 (ip), vehicle: carboxymethylcellulose (CMC)
[19] = dose: 400.0 mg/kg/injection, schedule: Q01DX001 (ip), vehicle: carboxymethylcellulose (CMC)

In the case of `OCCOCC(F)(F)F`, the T/C [1] is reported as 97 % of control, the T/C [2] is reported as 100 % of control and the T/C [3] is reported as 105 % of control. For the same compound, the T/C (dose: 400.0 mg/kg/injection, schedule: Q01DX015 (ip), vehicle: saline) was 96 % of control, the T/C (dose: 800.0 mg/kg/injection, schedule: Q01DX001 (ip), vehicle: saline) was 105 % of control and the T/C (dose: 800.0 mg/kg/injection, schedule: Q01DX015 (ip), vehicle: saline) was 101 % of control. The T/C (dose: 1600.0 mg/kg/injection, schedule: Q01DX001 (ip), vehicle: saline) was 108 % of control.
With `O=C1C=CC[C@H](/C=C/c2ccccc2)O1` the T/C (dose: 50.0 mg/kg/injection, schedule: Q01DX001 (ip), vehicle: alcohol) was 101 % of control, the T/C (dose: 100.0 mg/kg/injection, schedule: Q01DX001 (ip), vehicle: alcohol) was 103 % of control and the T/C (dose: 200.0 mg/kg/injection, schedule: Q01DX001 (ip), vehicle: alcohol) was 101 % of control. For the same compound, the T/C (dose: 400.0 mg/kg/injection, schedule: Q01DX001 (ip), vehicle: alcohol) was 107 % of control.
For `COc1cccn(C/C=C(\C)CCC=C(C)C)c1=O`, the T/C (dose: 25.0 mg/kg/injection, schedule: Q01DX009 (ip), vehicle: saline with Tween-80) was 104 % of control, the T/C (dose: 25.0 mg/kg/injection, schedule: Q04DX003 (ip), vehicle: saline with Tween-80) was 99 % of control and the T/C (dose: 50.0 mg/kg/injection, schedule: Q01DX009 (ip), vehicle: saline with Tween-80) was 94 % of control. The T/C (dose: 50.0 mg/kg/injection, schedule: Q04DX003 (ip), vehicle: saline with Tween-80) was 97 % of control, the T/C (dose: 100.0 mg/kg/injection, schedule: Q01DX009 (ip), vehicle: saline with Tween-80) was 90 % of control and the T/C [4] was 91 % of control.
`CCN(C)N=Nc1cccnc1` was tested, and the T/C (dose: 10.0 mg/kg/injection, schedule: Q01DX009 (ip), vehicle: saline) was 101 % of control, the T/C (dose: 15.0 mg/kg/injection, schedule: Q01DX009 (ip), vehicle: saline) was 107 % of control and the T/C (dose: 22.0 mg/kg/injection, schedule: Q01DX009 (ip), vehicle: Klucel (hydroxypropylcellulose) (HPC)) was 111 % of control. For the same compound, the T/C (dose: 22.0 mg/kg/injection, schedule: Q01DX009 (ip), vehicle: saline with Tween-80) was 110 % of control, the T/C (dose: 22.0 mg/kg/injection, schedule: Q01DX009 (ip), vehicle: saline) was 112 % of control and the T/C (dose: 33.0 mg/kg/injection, schedule: Q01DX009 (ip), vehicle: Klucel (hydroxypropylcellulose) (HPC)) was 108 % of control. For the same compound, the T/C (dose: 33.0 mg/kg/injection, schedule: Q01DX009 (ip), vehicle: saline with Tween-80) was 122 % of control, the T/C (dose: 33.0 mg/kg/injection, schedule: Q01DX009 (ip), vehicle: saline) was 152 % of control and the T/C [5] was 108 % of control. The T/C [6] was 170 % of control, the T/C (dose: 75.0 mg/kg/injection, schedule: Q01DX009 (ip), vehicle: Klucel (hydroxypropylcellulose) (HPC)) was 150 % of control and the T/C (dose: 75.0 mg/kg/injection, schedule: Q01DX009 (ip), vehicle: saline with Tween-80) was 122 % of control.
For `CCCCCCCCCCCCOCCOCCOCC(N)=O`, the T/C [7] was 104 % of control, the T/C [8] was 97 % of control and the T/C [9] was 100 % of control. For the same compound, the T/C [10] was 109 % of control, the T/C [11] was 96 % of control and the T/C [12] was 97 % of control.
With `CC(C)(C)OC(=O)C(C=O)N1C(=O)c2ccccc2C1=O` (stereo unspecified) the T/C (dose: 100.0 mg/kg/injection, schedule: Q01DX001 (ip), vehicle: Klucel (hydroxypropylcellulose) (HPC)) was 94 % of control, the T/C (dose: 100.0 mg/kg/injection, schedule: Q01DX009 (ip), vehicle: saline sonified) was 100 % of control and the T/C (dose: 200.0 mg/kg/injection, schedule: Q01DX001 (ip), vehicle: Klucel (hydroxypropylcellulose) (HPC)) was 92 % of control. The T/C (dose: 200.0 mg/kg/injection, schedule: Q01DX009 (ip), vehicle: saline sonified) was 94 % of control, the T/C (dose: 400.0 mg/kg/injection, schedule: Q01DX001 (ip), vehicle: Klucel (hydroxypropylcellulose) (HPC)) was 100 % of control and the T/C (dose: 400.0 mg/kg/injection, schedule: Q01DX009 (ip), vehicle: saline sonified) was 98 % of control.
With `CC(C)NC1C2CCC(CC2)C1(O)c1ccc(Cl)c(Cl)c1` (stereo unspecified) the T/C (dose: 25.0 mg/kg/injection, schedule: Q01DX009 (ip), vehicle: saline) was 101 % of control, the T/C (dose: 25.0 mg/kg/injection, schedule: Q04DX003 (ip), vehicle: saline) was 95 % of control and the T/C [6] was 95 % of control. The T/C (dose: 50.0 mg/kg/injection, schedule: Q04DX003 (ip), vehicle: saline) was 97 % of control, the T/C [7] was 100 % of control and the T/C [8] was 92 % of control. For the same compound, the T/C [9] was 95 % of control, the T/C [10] was 101 % of control and the T/C [11] was 92 % of control. The T/C [12] was 92 % of control.
For `N#Cc1ccccc1N=NNc1ccc([N+](=O)[O-])cc1`, the T/C (dose: 75.0 mg/kg/injection, schedule: Q01DX001 (ip), vehicle: saline) was 108 % of control, the T/C (dose: 150.0 mg/kg/injection, schedule: Q01DX001 (ip), vehicle: saline) was 104 % of control and the T/C (dose: 300.0 mg/kg/injection, schedule: Q01DX001 (ip), vehicle: saline) was 98 % of control.
`CP(c1ccccc1)c1ccccc1` was tested, and the T/C [5] was 98 % of control, the T/C [13] was 95 % of control and the T/C [14] was 104 % of control. The T/C [15] was 114 % of control.
With `CCCCOP(=O)(Nc1ccc(Cl)cc1)OCCCC` the T/C (dose: 100.0 mg/kg/injection, schedule: Q04DX002 (ip), vehicle: saline with Tween-80) was 101 % of control, the T/C (dose: 200.0 mg/kg/injection, schedule: Q04DX002 (ip), vehicle: saline with Tween-80) was 94 % of control and the T/C (dose: 400.0 mg/kg/injection, schedule: Q04DX002 (ip), vehicle: saline with Tween-80) was 105 % of control.
`CC(=O)Nc1cccc2c1C(=O)c1ccccc1-2` was tested, and the T/C [4] was 102 % of control, the T/C (dose: 200.0 mg/kg/injection, schedule: Q04DX003 (ip), vehicle: saline with Tween-80) was 112 % of control and the T/C (dose: 400.0 mg/kg/injection, schedule: Q04DX003 (ip), vehicle: saline with Tween-80) was 102 % of control.
With `CC1(C)C2CCC1(C)C(NCc1cc(Br)cc(Br)c1O)C2` (stereo unspecified) the T/C [14] was 92 % of control, the T/C [15] was 97 % of control and the T/C (dose: 400.0 mg/kg/injection, schedule: Q04DX003 (ip), vehicle: Klucel (hydroxypropylcellulose) (HPC)) was 98 % of control.
`CCOC(=O)C1C(=O)CC(=O)C(C(=O)OCC)C1c1ccc(OC)c(OC)c1OC` (stereo unspecified) was tested, and the T/C (dose: 100.0 mg/kg/injection, schedule: Q04DX002 (ip), vehicle: Klucel (hydroxypropylcellulose) (HPC)) was 103 % of control, the T/C (dose: 200.0 mg/kg/injection, schedule: Q04DX002 (ip), vehicle: Klucel (hydroxypropylcellulose) (HPC)) was 101 % of control and the T/C (dose: 400.0 mg/kg/injection, schedule: Q04DX002 (ip), vehicle: Klucel (hydroxypropylcellulose) (HPC)) was 113 % of control.
With `O=S(=O)(O)Sc1ncnc2nc[nH]c12` the T/C (dose: 125.0 mg/kg/injection, schedule: Q01DX009 (ip), vehicle: water) was 162 % of control, the T/C (dose: 250.0 mg/kg/injection, schedule: Q01DX009 (ip), vehicle: water) was 159 % of control and the T/C (dose: 250.0 mg/kg/injection, schedule: Q04DX003 (ip), vehicle: water) was 153 % of control.
In the case of `NCC(=O)c1cccc2ccc[n+]([O-])c12`, the T/C [5] is reported as 97 % of control, the T/C [13] is reported as 97 % of control and the T/C [14] is reported as 95 % of control. The T/C [15] was 98 % of control.
In the case of `Cc1ccc(I)c([N+](=O)[O-])c1`, the T/C [16] is reported as 96 % of control, the T/C [17] is reported as 89 % of control and the T/C [18] is reported as 91 % of control. For the same compound, the T/C [19] was 100 % of control.
In the case of `O=C(c1ccc([N+](=O)[O-])cc1)C1NC1c1ccc([N+](=O)[O-])cc1` (stereo unspecified), the T/C [16] is reported as 108 % of control, the T/C [17] is reported as 100 % of control and the T/C [18] is reported as 105 % of control. The T/C [19] was 97 % of control.
`Cn1c(=O)cc(CC(=O)O)c2ccccc21` was tested, and the T/C (dose: 100.0 mg/kg/injection, schedule: Q01DX001 (ip), vehicle: other) was 95 % of control, the T/C (dose: 200.0 mg/kg/injection, schedule: Q01DX001 (ip), vehicle: other) was 95 % of control and the T/C (dose: 400.0 mg/kg/injection, schedule: Q01DX001 (ip), vehicle: other) was 98 % of control.
`COC(=O)C1=C(N)OC(C)(C)C1c1ccc(Cl)cc1` (stereo unspecified) was tested, and the T/C [1] was 100 % of control, the T/C [2] was 94 % of control and the T/C [3] was 97 % of control.
